Data reported in patent US9181253B2 (The United States of America, as represented by the …, priority 2008, dated 2015).
Where two headings read alike, the source gives them in different places. Marks after values point to notes of the source that are not given here.

What was measured:
MES seizures in mice = test: Maximal electroshock (MES) seizure test; type: in vivo; conditions: i.p.
Procedure: The electrical tests used were the maximal electroshock (MES) seizure test, the 6 Hz minimal clonic seizure test, and the corneal kindled mouse test. The chemical test was the s.c. metrazol seizure tests. Time of peak effect (TPE) is deduced from data generated in initial qualitative test procedures. Five groups of 4 animals each are administered the test compound, and each group is tested at one of five different time intervals: ¼, ½, 1, 2 and 4 h. The time point at which the compound produces the most activity/toxicity was chosen as TPE.
(§1) For the MES and 6 Hz tests, a drop of anesthetic/electrolyte solution (0.5% tetracaine hydrochloride in 0.9% saline) was applied to the eyes of each animal prior to placement of the corneal electrodes. The electrical stimulus in the MES test was 50 mA, 60 Hz, for mice. Abolition of the hindleg tonic extensor component of the seizure was used as the endpoint.

hA1AR [1] = target: T1, hA1AR (Homo sapiens (Human), UniProt P30542); conditions: values from literature references; read-out: Affinity Ki, nM A1; cited from earlier work
hA3AR = hA3AR (Homo sapiens (Human), UniProt P0DMS8); conditions: values from literature references; read-out: Affinity Ki, nM A3; cited from earlier work
[2] = test system: seizures induced by 6 Hz corneal stimulation in mice; test: 6 Hz minimal clonic seizure test; type: in vivo
Procedure: as §1
The ability of the test substance to prevent seizures induced by 6 Hz corneal stimulation (32 mA, 3 sec duration) in mice was evaluated at a convulsive current that evokes a seizure in 97% of the population tested (CC97). Six Hz seizures are characterized by a minimal clonic phase that is followed by stereotyped, automatistic behaviors described originally as being similar to the aura of human patients with partial seizures. Toman, J. E. et al., Tex. Rep.
Animals not displaying this behavior were considered protected.

hA2AAR [3] = target: T2, hA2AAR (Homo sapiens (Human), UniProt P29274); conditions: values from literature references; read-out: Affinity Ki, nM A2A; cited from earlier work
mice = test: Minimal behavioral toxicity test, rotorod procedure; conditions: i.p.
[4] = test system: s.c. metrazol seizures in mice; test: s.c. metrazol (scMET) seizure test; type: in vivo; conditions: i.p.
Description: In vivo anticonvulsant activity was established by both electrical and chemoconvulsant seizure tests which have been described previously. White, H. S., et al., Ital. J. Neurol. […] White, H. S. et al., Antiepileptic Drugs ([…].; Meldrum, B. S. ed), 1995, pp 99-110, Raven Press, New York.; and Smith, M., et al., Neurotherapeutics 2007, 4, 12-17. The electrical tests used were the maximal electroshock (MES) seizure test, the 6 Hz minimal clonic seizure test, and the corneal kindled mouse test. The chemical test was the s.c. metrazol seizure tests. Time of peak effect (TPE) is deduced from data generated in initial qualitative test procedures. […] The time point at which the compound produces the most activity/toxicity was chosen as TPE.

corneal kindled mice = test: Corneal-kindled mouse model of partial seizures; type: in vivo; conditions: qualitative test, 3 mg/kg, 1 hour post injection, n=4
Description: Mice were kindled according to the methods described by […] and […]; […] Louis, Mo.) was applied to the cornea to ensure local anesthesia and good electrical conductivity. Stimulations were at least four hours apart. […] See Racine, R., Electroencephalogr. Clin. Neurophysiol. 1972, pp. 281-294. At the completion of the kindling acquisition, mice were permitted at least a 3-day stimulation-free period prior to any drug testing. Mice were stimulated once the day before drug testing to ensure they had achieved and maintained a kindled state. On the day of the drug study, corneal kindled mice (n=4, or 8) received a single i.p. dose of test compound. Mice were challenged with the corneal kindling stimulus of 3 mA for 3 seconds at TPE after test compound administration. Mice were scored as protected (seizure score of ≦3) or not protected, (seizure score ≧4) based on the Racine scoring.

in vivo = conditions: mouse, ip
hA2AAR [5] = target: T2, hA2AAR; test: Radioligand membrane binding at hA2AAR (Example 6); conditions: HEK293 cells expressing hA2AAR; [3H]CGS21680; n = 3-5; read-out: Affinity Ki, nM A2A
Procedure: (§2) In addition, 800 μg/mL Geneticin and 500 μg/mL hygromycin were added to the A2A media and to the A1 and A3 media, respectively. […] The concentration of protein was determined using a BCA Protein Assay Kit from Pierce Biotechnology (Rockford, Ill.).
(§3) Radioligand binding assays at A1, A2A, and A3ARs were performed according to the procedures described previously.
(§4) All of the filters were washed 3 times with Tris-HCl, pH 7.5. […] Filters for A3AR binding were counted using a PerkinElmer Cobra II γ-counter.
(§5) Binding and functional parameters were calculated using Prism 5.0 software (GraphPAD, San Diego, Calif., USA). IC50 values obtained from competition curves were converted to Ki values using the Cheng-Prusoff equation. Data were expressed as mean±standard error.

hA1AR [6] = target: T1, hA1AR; test: A1AR functional assay, inhibition of forskolin-stimulated cyclic AMP production in AR-transfected CHO cells; type: cell-based; conditions: FIG. 12, compared to full agonist NECA
hA1AR [7] = target: T1, hA1AR; test: Radioligand membrane binding at hA1AR (Example 6)
Procedure: as §2, §3, §4, §5

human A3AR [8] = target: T3, human A3AR (Homo sapiens (Human), UniProt P0DMS8); test: [35S]GTPγS binding assay, membranes of CHO cells expressing human A3AR; type: biochemical
human A3 receptor = human A3 receptor (Homo sapiens (Human), UniProt P0DMS8); test: Binding assay at the human A3 receptor (Example 2); conditions: CHO cells expressing human A3AR; radioligand [125I]I-AB-MECA; n = 3-5; read-out: Affinity (Ki, nM) A3
human A3AR [9] = target: T3, human A3AR; test: Cyclic AMP accumulation / adenylate cyclase assay, CHO cells expressing hA3AR; type: cell-based

T3 sequence (P0DMS8 whole entry): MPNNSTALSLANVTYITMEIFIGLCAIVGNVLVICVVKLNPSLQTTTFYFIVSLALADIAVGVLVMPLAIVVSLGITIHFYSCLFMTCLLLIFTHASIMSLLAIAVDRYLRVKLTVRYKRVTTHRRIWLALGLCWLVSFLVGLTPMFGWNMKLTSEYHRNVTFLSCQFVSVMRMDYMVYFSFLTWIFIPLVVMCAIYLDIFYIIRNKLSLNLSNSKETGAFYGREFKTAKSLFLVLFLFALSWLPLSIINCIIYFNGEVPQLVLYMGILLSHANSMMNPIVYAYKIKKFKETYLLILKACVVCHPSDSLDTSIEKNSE
T1 sequence (P30542 whole entry): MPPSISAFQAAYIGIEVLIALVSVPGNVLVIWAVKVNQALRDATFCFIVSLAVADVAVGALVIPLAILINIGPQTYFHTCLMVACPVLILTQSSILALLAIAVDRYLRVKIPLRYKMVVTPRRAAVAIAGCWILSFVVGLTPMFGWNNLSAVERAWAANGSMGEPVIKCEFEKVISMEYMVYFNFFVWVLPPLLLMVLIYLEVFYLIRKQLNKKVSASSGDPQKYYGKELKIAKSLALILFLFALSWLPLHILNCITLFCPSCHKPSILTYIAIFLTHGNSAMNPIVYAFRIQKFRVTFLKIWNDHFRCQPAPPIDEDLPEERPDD
T2 sequence (P29274 whole entry): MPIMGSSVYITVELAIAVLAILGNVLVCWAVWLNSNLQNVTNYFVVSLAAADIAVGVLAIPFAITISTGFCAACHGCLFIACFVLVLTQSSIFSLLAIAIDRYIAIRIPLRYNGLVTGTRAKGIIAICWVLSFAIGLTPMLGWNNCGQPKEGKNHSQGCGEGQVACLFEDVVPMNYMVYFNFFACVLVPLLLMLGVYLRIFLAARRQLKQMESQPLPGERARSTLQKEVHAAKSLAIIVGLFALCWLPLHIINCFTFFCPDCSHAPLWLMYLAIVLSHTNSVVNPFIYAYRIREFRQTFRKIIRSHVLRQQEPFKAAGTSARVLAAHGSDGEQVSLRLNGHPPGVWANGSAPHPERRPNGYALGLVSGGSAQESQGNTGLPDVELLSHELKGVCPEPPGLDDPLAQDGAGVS
hA3AR, sequence (P0DMS8 whole entry): as the sequence (P0DMS8 whole entry) above
human A3 receptor, sequence (P0DMS8 whole entry): as above

NCCNC(=O)Cc1ccc(NC(=O)Cc2ccc(Nc3ncnc4c3ncn4[C@@H]3O[C@H](CO)[C@@H](O)[C@H]3O)cc2)cc1 [Compound 237]
MES model, number of animals protected from convulsions (MES seizures in mice; 2 mg/kg): 4 out of 8
Ki (hA1AR [1]): 10.4 ± 3.8 nM
Ki (hA3AR): 12.4 ± 4.1 nM
6 Hz model ED50 ([2]; mice, i.p., measured at 1 h post injection): 0.03^c mg/kg
Ki (hA2AAR [3]): 370 ± 100 nM
Behavioral toxicity TD50 (mice; measured at 4 h post injection): 0.14^d mg/kg
scMET model, number of animals protected from convulsions ([4]; 1 mg/kg): 5 out of 8

O[C@@H]1[C@H](O)[C@@H]2C[C@@H]2[C@H]1n1cnc2c(NC(C3CC3)C3CC3)nc(Cl)nc21 [Compound 121, (1R,2R,3S,4R,5S)-4-(2-Chloro-6-(dicyclopropylmethylamino)-9H-purin-9-yl)bicyclo[3.1.0]hexane-2,3-diol]
MES model, number of animals protected from convulsions (MES seizures in mice; 3 mg/kg): 1 out of 4
corneal kindled mouse model, animals protected (corneal kindled mice): all animals (n=4) were protected
TD50 (in vivo): > 10 mg/kg
ED50 ([2]; Mus musculus, ip, mice, i.p., measured at 1 h post injection, read-out: 6 Hz model ED50): 2.74 mg/kg
ED50 in antiseizure models, times less potent compared to 235b ([2]; mouse, in vivo): about 20 times
Ki (hA2AAR [5]): 3950 ± 410 nM
agonist character at A1 AR, concentration-response curve of inhibition of cyclic AMP production (hA1AR [6]): full agonist
Behavioral toxicity TD50 (mice): >10 mg/kg
scMET model, number of animals protected from convulsions ([4]; 3 mg/kg): No protection
times less potent at the A1AR in in vitro binding compared to 235b (hA1AR [7]): ~40 times
Ki (hA1AR [7]; CHO cells expressing hA1AR, [3H]R-PIA, n = 3-5, read-out: Affinity Ki, nM A1): 47.9 ± 10.5 nM

O[C@@H]1[C@H](O)[C@@H]2C[C@@H]2[C@H]1n1cnc2c(NCc3cccc(I)c3)nc(Cl)nc21 [Compound 7b, (1′R,2′R,3′S,4′R,5′S)-4′-[2-Chloro-6-(3-iodobenzylamino)purine]-2′,3′-O-dihydroxybicyclo-[3.1.0]hexane]
IC50 (human A3AR [8]; read-out: IC50, inhibition of [35S]GTPγS binding stimulated by NECA, stimulation by 1 μM NECA): 29.8 nM
% Efficacy A3 (human A3AR [8]; stimulation measured by [35S]GTPγS binding assay): 1.0 ± 3.2%
Ki (human A3 receptor): 1.44 ± 0.6 nM
EC50 (human A3AR [9]; partial agonism, read-out: EC50 at A3AR, cAMP assay): 12 ± 1 nM
Kb (human A3AR [9]; right shifts of response curves in the inhibition of adenylate cyclase by NECA, read-out: KB value, Schild analysis): 8.9 nM
